According to paper PMC5648515, “A novel small molecule inhibitor of p32 mitochondrial protein overexpressed in glioma” (Journal of Translational Medicine, 2017):

Molecular target: T1, p32 (C1qBP) (Homo sapiens, UniProt Q07021)
T1 construct: Human recombinant p32 (OriGene)
T1 sequence (Q07021 74-282): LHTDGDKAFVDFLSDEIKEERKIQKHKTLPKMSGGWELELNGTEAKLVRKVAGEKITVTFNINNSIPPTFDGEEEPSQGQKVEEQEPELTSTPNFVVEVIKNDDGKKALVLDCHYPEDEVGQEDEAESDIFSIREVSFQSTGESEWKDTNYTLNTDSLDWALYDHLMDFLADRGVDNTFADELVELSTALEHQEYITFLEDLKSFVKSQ
Assay: fluorescence polarization competition with 5-FAM-labelled cyclic LyP-1 peptide; protein thermal shift with […] M36
Assay type: binding

O=C(NCCCNC(=O)Nc1cccc(C2=NCCN2)c1)Nc1cccc(C2=NCCN2)c1 [M36]
p32 thermal shift stability change: P32 protein stability was altered by M36 as observed by a shift in the melting curve of the protein
